According to paper PMC8850458, “The AUTOTAC chemical biology platform for targeted protein degradation via the autophagy-lysosome system” (Nature Communications, 2022):
“And” between values parts separate entries of the source, which are not always exact repeats. Identical values can stand only once. Like-named read-outs stand apart in the source and are kept apart here.

Legend:
[1] = target: tauP301L (Homo sapiens, UniProt P10636, P618L); test: WB degradation of tauP301L in SH-SY5Y-tauP301L cells; type: cell-based; conditions: densitometry, dosage degradation, SH-SY5Y-Tau-TiFC; for Tau normalized to GAPDH and control, AVG %: average of N=3
Sequence of tauP301L (P10636 1-441 isoform P10636-8 P301L): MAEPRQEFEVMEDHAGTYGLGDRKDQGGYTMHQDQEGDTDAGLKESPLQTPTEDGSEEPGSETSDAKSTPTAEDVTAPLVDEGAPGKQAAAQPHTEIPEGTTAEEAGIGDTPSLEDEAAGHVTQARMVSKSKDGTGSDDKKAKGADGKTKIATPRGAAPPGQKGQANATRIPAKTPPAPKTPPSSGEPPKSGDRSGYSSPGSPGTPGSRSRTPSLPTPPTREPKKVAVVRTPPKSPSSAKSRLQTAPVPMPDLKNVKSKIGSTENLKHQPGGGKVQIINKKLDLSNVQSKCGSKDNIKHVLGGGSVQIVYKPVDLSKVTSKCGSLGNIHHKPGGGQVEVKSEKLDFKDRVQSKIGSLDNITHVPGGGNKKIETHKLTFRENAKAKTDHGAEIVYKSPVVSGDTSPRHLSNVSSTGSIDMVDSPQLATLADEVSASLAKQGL
Procedure: (§1) Adherent cells were washed with phosphate-buffered saline (PBS) and cell pellets were lysed in SDS-based sample buffer (277.8 mM Tris-HCI, pH 6.8, 4.4% LDS, 44.4% (v/v) glycerol) containing beta-mercaptoethanol. Alternatively, cell pellets or protein supernatants were lysed in 5X Laemmli sample buffer. Whole-cell lysates were separated using SDS-PAGE, and transferred onto polyvinyllidene difluoride membranes at 100 V for 2 h at 4 °C. The membrane was incubated with a blocking solution consisting 4% skim milk in PBS solution for 30 min at room temperature and incubated with primary antibodies overnight, followed by incubation with host-specific HRP-conjugated secondary antibodies (1:10000 dilution). For signal detection, the membrane was developed with a mixture of ECL solution (Thermo Fisher Scientific) using X-ray films. Densitometry of developed bands was measured and analyzed with ImageJ (NIH, Bethesda).

[2] = test system: mutant HttQ103 and LC3; test: ICC of HDQ103-GFP and LC3 co-localization in HeLa cells; type: cell-based; conditions: Fig. S7k, test substances given +HCQ; for HttQ103-GFP / LC3 colocalization, AVG of cells per 50 cells: control 1; for HttQ103-GFP / LC3 colocalization, percentage AVG: control 2
Procedure: Cells were cultured on coverslips coated with poly-L-lysine (Sigma) to observe cellular localization of proteins. Using 4% paraformaldehyde in PBS (pH 7.4), the cells were fixed for 15 min at room temperature and washed three times for 5 min with PBS. After fixing, the cells were permeabilized with 0.5% Triton X-100 in PBS solution for 15 min and washed three times with PBS for 5 min. The cells were blocked containing 2% BSA in PBS solution for 1 h at room temperature. Subsequently, the cells were incubated with primary antibody diluted in 2% BSA/PBS solution overnight at 4 °C, followed by washing the cells three times for 10 min with PBS and incubated with Alexa Fluor-conjugated secondary antibody diluted in 2% BSA/PBS for 30 min at room temperature. Using a DAPI-containing mounting medium (Vector Laboratories), the coverslips were mounted on glass slides. Confocal images were taken by laser scanning confocal microscope 510 Meta (Zeiss) and analyzed by Zeiss LSM Image Browser (ver. 4.2.0.121). […] Quantification results are shown as mean ± S.D. or S.E.M. of three independent experiments […]
Supplementary Fig. 7. AUTOTACs selectively degrade pathological mutant huntingtin. […]
(j) ICC of HeLa cells […]
expressing HDQ103-GFP with the indicated compounds (1 μM, 24 h) treated with HCQ (10 μM, 24 h). Scale bar, 10 μm. (k) Quantification of j (n=3 biologically independent experiments each counting 50 cells). P-values (from a two-sided unpaired t-test): *P < 0.0432. Data are presented as mean values ± SD where relevant. Source data are provided with this paper. […]

[3] = test system: tauP301L inclusion bodies; test: ICC of TauP301L-GFP autophagic targeting in HeLa cells; type: cell-based; conditions: Fig. 5k, HCQ alone
Procedure: Fig. 5 Selective degradation of pathological aggregation-prone tau species by aggregate-binding AUTOTAC. a–c WB in SH-SY5Y-tauP301L cells treated with PBA-1105, PBA, or YTK-1105 at the indicated concentrations. d Densitometry of (a, b, and c) (n = 3 biologically independent experiments). e–g Same as (a–c) but with Anle138b-F105, Anle138b, or YTK-105. (h) Densitometry of (e, f, and g) (n = 3 biologically independent experiments). i WB in SH-SY5Y-tauP301L cells treated with PBA-1105 (0.1 μM) at the indicated time points. j ICC of HeLa cells expressing recombinant TauP301L-GFP and treated with the indicated compounds (1 μM, 24 h) and HCQ (10 μM, 24 h). Scale bar, 10 μm. k Quantification of (j) (n = 3 biologically independent experiments each counting 50 cells). l In vivo oligomerization assay in SH-SY5Y-tauP301L cells treated with okadaic acid (15 nM, 24 h) and the indicated compounds (0.1 μM, 24 h). m Triton X-100-fractionation assay in SH-SY5Y-tauP301L cells treated with a combination of HCQ (10 μM, 24 h), okadaic acid (15 nM, 24 h) or PBA-1105 (0.1 μM, 24 h). Data are presented as mean values ± SD where relevant. P-values (from a two-sided unpaired t test): **P < 0.00821. Source data are provided with this paper.
(§2) Cells were cultured on coverslips coated with poly-L-lysine (Sigma) to observe cellular localization of proteins. Using 4% paraformaldehyde in PBS (pH 7.4), the cells were fixed for 15 min at room temperature and washed three times for 5 min with PBS. After fixing, the cells were permeabilized with 0.5% Triton X-100 in PBS solution for 15 min and washed three times with PBS for 5 min. The cells were blocked containing 2% BSA in PBS solution for 1 h at room temperature. Subsequently, the cells were incubated with primary antibody diluted in 2% BSA/PBS solution overnight at 4 °C, followed by washing the cells three times for 10 min with PBS and incubated with Alexa Fluor-conjugated secondary antibody diluted in 2% BSA/PBS for 30 min at room temperature. Using a DAPI-containing mounting medium (Vector Laboratories), the coverslips were mounted on glass slides. Confocal images were taken by laser scanning confocal microscope 510 Meta (Zeiss) and analyzed by Zeiss LSM Image Browser (ver. 4.2.0.121). […] Quantification results are shown as mean ± S.D. or S.E.M. of three independent experiments

[4] = test system: autophagic turnover of p62 and LC3; test: Autophagic flux assay in HeLa cells with or without HCQ; type: cell-based; conditions: 2.5 μM, 24 h, with or without HCQ 10 µM 24 h
Procedure: Fig. 1 Nt-Arg-mimicking p62-ZZ ligands activate p62-dependent selective macroautophagy. a A model illustrating the mode of action of autophagy-targeting ligands. b Chemical structures of autophagy-targeting ligands. c In vitro pulldown assay in HEK293T cells of the 12-mer V-BiP peptide or autophagy-targeting ligands. d In vitro p62 oligomerization assay in HEK293T cells incubated with the p62-ZZ ligands in (b). e ICC of HeLa cells treated with p62-ZZ ligands in (b) (2.5 μM, 24 h). Scale bar, 10 μm. f, g Quantification of (e) for puncta formation and co-localization, respectively (n = 3 biologically independent experiments each counting 50 cells). h A schematic/formulae for autophagy flux index. i Autophagic flux assay in HeLa cells treated with YOK-1304 or YTK-105 (2.5 μM, 24 h) in the presence or absence of HCQ (10 µM, 24 h). Data are presented as mean values ± SD where relevant. P-values (from a two-sided unpaired t test): ***P < 0.000956 (for p62 punctate formation), ***P < 0.000539 (for LC3 punctate formation), ***P < 0.000925 (for p62-LC3 co-localization). Source data are provided with this paper. TEXT PRINTED IN THE PICTURE: (i) YOK 1304: Normalized p62 A.F. index: 2.8; Normalized LC3 II/I A.F. index: 4.2 | (i) YTK 105: Normalized p62 A.F. index: 4.6; Normalized LC3 II/I A.F. index: 11.2
as §1

[5] = test system: p62-positive and WIPI2-positive punctate structures; test: ICC of WIPI2-p62 co-localization in HeLa cells; type: cell-based; conditions: HeLa expressing WIPI2-GFP, 2.5 μM, 6 h
Procedure: as §2
Supplementary Fig. 2. Characterization of p62-ZZ ligands (a, c, e) 3-D modeling of p62 […]
μM, 6 h). (m) Quantification of l for co-localization (n=3, 50 cells). Scale bar, 10 µm. (n) […]

[6] = test system: p62 and LC3 punctate structures; test: ICC of p62 and LC3 puncta formation and co-localization in HeLa cells; type: cell-based; conditions: 2.5 μM, 24 h
Procedure: as §2

[7] = test system: ACHN cells; test: Wound healing assay in ACHN cells; type: cell-based; parameters: wound area / wound area, Average: unit not given here; conditions: ACHN, 5 μM; for wound area: N=1, N=2
Procedure: To analyze cell migration in two dimensions, U-87 MG or ACHN cells were plated to a monolayer. Cells were scratched with a sterile 10 μl pipette tip and the debris was removed using medium. Cells were treated with compounds and incubated for different time to monitor cell behavior. Photographs were obtained using a microscope at different time point.

[8] = test system: ACHN cells; test: WST-based cell viability assay in ACHN cells; conditions: ACHN, duplicates
[9] = WST-based cell viability assay in ACHN cells; conditions: human, ACHN cells; for viability at 0.01 µM / viability at 0.1 µM / viability at 1 µM / viability at 10 µM / viability at 50 µM / viability at 100 µM: ACHN
[10] = duplicates, read-out: WST assay viability relative to con = 100
[11] = read-out: WST assay viability, AVG %

## Brc1cccc(-c2cc(-c3ccc4c(c3)OCO4)[nH]n2)c1 [Anle138b, reference compound]
[1]; 1 nM
  Tau normalized to GAPDH and control, AVG %: 90.8031%
[1]; 1 nM, read-out: (Tau normalized to GAPDH) normalized to control, percentage (individual replicates N=1, N=2, N=3)
  remaining activity at 0.001 µM: 89.3%
[1]; 10 nM
  Tau normalized to GAPDH and control, AVG %: 101.352%
[1]; 100 nM
  Tau normalized to GAPDH and control, AVG %: 84.5794%
[1]; 1 uM
  Tau normalized to GAPDH and control, AVG %: 69.922%
[1]; 10uM
  Tau normalized to GAPDH and control, AVG %: 83.6402%
[2]
  HttQ103-GFP / LC3 colocalization, AVG of cells per 50 cells: 21
  HttQ103-GFP / LC3 colocalization, percentage AVG: 42

## CCN(CCO)CCCC(C)Nc1ccnc2cc(Cl)ccc12 (stereo not drawn) [HCQ]
[3]
  TauP301L-GFP / LC3 colocalization, AVG of cells per 50 cells: 11.3333
  TauP301L-GFP / LC3 colocalization, percentage AVG: 22.6667 percentage
[3]; count out of 50 cells
  TauP301L-GFP / LC3 colocalization, cells counted per 50 cells (individual replicates): 15 and 7 and 12
[2]
  HttQ103-GFP / LC3 colocalization, AVG of cells per 50 cells: 14.6667
  HttQ103-GFP / LC3 colocalization, percentage AVG: 29.3333
[2]; single experiments
  HttQ103-GFP / LC3 colocalization, cells counted per 50 cells: 13 and 17 and 14

## CC(C)NCC(O)COc1ccc(OCc2ccccc2)c(OCCCc2ccccc2)c1 (stereo not drawn) [YOK-1304]
[4]
  Normalized LC3 II/I A.F. index: 4.2
  Normalized p62 A.F. index: 2.8
[5]
  WIPI2-GFP-p62 colocalization, AVG of cells of 50: 30.6667
  WIPI2-GFP-p62 colocalization, percentage AVG: 61.3333%
[5]; single experiments
  WIPI2-GFP-p62 colocalization, cells of 50 cells counted: 28 and 23 and 41
[6]
  LC3 puncta formation, AVG of cells of 50: 38.6667
  LC3 puncta formation, percentage AVG: 77.3333%
  p62-LC3 colocalization, AVG of cells of 50: 37
  p62-LC3 colocalization, percentage AVG: 74%
  p62 puncta formation, AVG of cells of 50: 40.3333
  p62 puncta formation, percentage AVG: 80.6667%
[6]; single experiments
  LC3 puncta formation, cells of 50 cells counted: 29 and 49 and 38
  p62-LC3 colocalization, cells of 50 cells counted: 36 and 39
  p62 puncta formation, cells of 50 cells counted: 46 and 36 and 39
[7]; 0h
  wound area, Average: 2209762
  wound area, Average %: 0%
  wound area: 2287288 and 2132236
[7]; 4h
  wound area, Average: 1966032
  wound area, Average %: 0%
  wound area: 2073039 and 1859025
[7]; 12h
  wound area, Average: 1228896
  wound area, Average %: 0%
  wound area: 1307559 and 1150234
[7]; 24h
  wound area, Average: 122450
  wound area, Average %: 0%
[8]; 0.01uM
  WST assay raw reading: 0.964 and 0.955
  WST assay viability relative to con = 100: 95.4624
[8]; 0.1uM
  WST assay raw reading: 1.085 and 1.014
[8]; 1uM
  WST assay raw reading: 1.025 and 0.998
  WST assay viability relative to con = 100: 100.423
[8]; 10uM
  WST assay raw reading: 1.004 and 1.024
  WST assay viability relative to con = 100: 103.422
[8]; 50uM
  WST assay raw reading: 1.153 and 1.063
  WST assay viability relative to con = 100: 107.922
[8]; 100uM
  WST assay raw reading: 0.69 and 0.729
  WST assay viability relative to con = 100: 69.3905
[9]; [10]
  viability at 0.01 µM: 96.5%
  viability at 0.1 µM: 110%
  viability at 1 µM: 104%
  viability at 10 µM: 101%
  viability at 50 µM: 118%
  viability at 100 µM: 64.9%
[9]; [11]
  viability at 0.01 µM: 96%
  viability at 0.1 µM: 106%
  viability at 1 µM: 102%
  viability at 10 µM: 102%
  viability at 50 µM: 113%
  viability at 100 µM: 67.1%
[9]; WST-based viability assay, read-out: cytotoxicity IC50
  IC50: > 20 µM
